“And” between values parts separate entries of the source, which are not always exact repeats. Identical values can stand only once. Toxic doses and inconclusive results are not listed.
System: L1210 leukemia ip in BDF1 mice, survival T/C
Test: NCI In Vivo Anticancer Drug Screen. Data for tumor model L1210 Leukemia (intraperitoneal) in B6D2F1 (BDF1) mice
Conditions: endpoint: mean survival time, higher = longer survival
Method in brief: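 In this screen, tumor-bearing mice given compound are compared to those given vehicle, and their survival values are reported as a treated-to-control quotient.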

[1] = dose: 100.0 mg/kg/injection, schedule: Q01DX001 (ip), vehicle: saline with Tween-80
[2] = dose: 100.0 mg/kg/injection, schedule: Q01DX001 (ip), vehicle: Klucel (hydroxypropylcellulose) (HPC)
[3] = dose: 200.0 mg/kg/injection, schedule: Q01DX001 (ip), vehicle: Klucel (hydroxypropylcellulose) (HPC)
[4] = dose: 400.0 mg/kg/injection, schedule: Q01DX001 (ip), vehicle: Klucel (hydroxypropylcellulose) (HPC)
[5] = dose: 100.0 mg/kg/injection, schedule: Q04DX003 (ip), vehicle: Klucel (hydroxypropylcellulose) (HPC)
[6] = dose: 200.0 mg/kg/injection, schedule: Q04DX003 (ip), vehicle: Klucel (hydroxypropylcellulose) (HPC)
[7] = dose: 400.0 mg/kg/injection, schedule: Q04DX003 (ip), vehicle: Klucel (hydroxypropylcellulose) (HPC)
[8] = dose: 50.0 mg/kg/injection, schedule: Q01DX001 (ip), vehicle: saline
[9] = dose: 100.0 mg/kg/injection, schedule: Q01DX001 (ip), vehicle: saline
[10] = dose: 200.0 mg/kg/injection, schedule: Q01DX001 (ip), vehicle: saline
[11] = dose: 400.0 mg/kg/injection, schedule: Q01DX001 (ip), vehicle: saline
[12] = dose: 50.0 mg/kg/injection, schedule: Q04DX002 (ip), vehicle: Klucel (hydroxypropylcellulose) (HPC)
[13] = dose: 100.0 mg/kg/injection, schedule: Q01DX009 (ip), vehicle: Klucel (hydroxypropylcellulose) (HPC)
[14] = dose: 100.0 mg/kg/injection, schedule: Q04DX003 (ip), vehicle: saline with Tween-80
[15] = dose: 200.0 mg/kg/injection, schedule: Q04DX003 (ip), vehicle: saline with Tween-80

With `O=C(Nc1ccc(NC(=O)c2ccc(C3=NCCN3)cc2)cc1)Nc1ccc(C2=NCCN2)cc1` the T/C (dose: 6.25 mg/kg/injection, schedule: Q01DX Z (ip), vehicle: carboxymethylcellulose (CMC)) was 117 % of control, the T/C (dose: 25.0 mg/kg/injection, schedule: Q01DX Z (ip), vehicle: carboxymethylcellulose (CMC)) was 206 % of control and the T/C (dose: 50.0 mg/kg/injection, schedule: Q01DX Z (ip), vehicle: carboxymethylcellulose (CMC)) was 268 % of control. The T/C (dose: 62.0 mg/kg/injection, schedule: Q01DX Z (ip), vehicle: carboxymethylcellulose (CMC)) was 282 % of control, the T/C (dose: 62.0 mg/kg/injection, schedule: Q01DX Z (oral), vehicle: carboxymethylcellulose (CMC)) was 120 % of control and the T/C (dose: 100.0 mg/kg/injection, schedule: Q01DX Z (ip), vehicle: carboxymethylcellulose (CMC)) was 106 % of control. The T/C (dose: 125.0 mg/kg/injection, schedule: Q01DX Z (ip), vehicle: carboxymethylcellulose (CMC)) was 214 % of control, the T/C (dose: 125.0 mg/kg/injection, schedule: Q01DX Z (oral), vehicle: carboxymethylcellulose (CMC)) was 97 % of control and the T/C (dose: 150.0 mg/kg/injection, schedule: Q01DX Z (ip), vehicle: carboxymethylcellulose (CMC)) was 94 % of control. The T/C (dose: 175.0 mg/kg/injection, schedule: Q01DX Z (ip), vehicle: carboxymethylcellulose (CMC)) was 115 % of control, the T/C (dose: 250.0 mg/kg/injection, schedule: Q01DX Z (ip), vehicle: carboxymethylcellulose (CMC)) was 109 % of control and the T/C (dose: 250.0 mg/kg/injection, schedule: Q01DX Z (oral), vehicle: carboxymethylcellulose (CMC)) was 103 % of control. For the same compound, the T/C (dose: 300.0 mg/kg/injection, schedule: Q01DX Z (oral), vehicle: carboxymethylcellulose (CMC)) was 103 % of control.
With `CCCCCCCCCCCCc1ccc(/C(C)=N/NC(=O)c2ccc[n+](C)c2)cc1` the T/C [1] was 93 % of control.
`Cc1ccc(S(=O)(=O)N(Cc2ccccc2[N+](=O)[O-])c2ccccc2)cc1` was tested, and the T/C (dose: 100.0 mg/kg/injection, schedule: Q01DX001 (ip), vehicle: carboxymethylcellulose (CMC)) was 103 % of control, the T/C (dose: 200.0 mg/kg/injection, schedule: Q01DX001 (ip), vehicle: carboxymethylcellulose (CMC)) was 100 % of control and the T/C (dose: 400.0 mg/kg/injection, schedule: Q01DX001 (ip), vehicle: carboxymethylcellulose (CMC)) was 103 % of control.
For `O=C(N/N=C/c1[nH]c(=S)[nH]c(=O)c1Cc1ccc(Cl)cc1)c1ccncc1`, the T/C [2] was 104 % of control, the T/C [3] was 101 % of control and the T/C [4] was 98 % of control.
For `OCC(O)C(O)C(OC1OC(CO)C(O)C(O)C1O)C(O)CO` (centres undefined), the T/C [2] was 99 % of control, the T/C [3] was 89 % of control and the T/C [4] was 99 % of control.
For `Cc1nc2c(Cl)cc(Cl)cc2c2c1-c1ccccc1C2=O`, the T/C (dose: 100.0 mg/kg/injection, schedule: Q04DX003 (ip), vehicle: acetone) was 89 % of control, the T/C (dose: 200.0 mg/kg/injection, schedule: Q04DX003 (ip), vehicle: acetone) was 89 % of control and the T/C (dose: 400.0 mg/kg/injection, schedule: Q04DX003 (ip), vehicle: acetone) was 97 % of control.
For `Nc1cc(C(Cl)(Cl)Cl)nc(Cl)n1`, the T/C [5] was 105 % of control, the T/C [6] was 94 % of control and the T/C [7] was 94 % of control.
With `CC(C)CC(CC(C)C)NCC(C)OC(=O)c1ccc(N(C)C)cc1` (centres undefined) the T/C (dose: 75.0 mg/kg/injection, schedule: Q01DX001 (ip), vehicle: other) was 101 % of control and the T/C (dose: 150.0 mg/kg/injection, schedule: Q01DX001 (ip), vehicle: other) was 106 % of control.
In the case of `Oc1cccc(NC(=S)Nc2ccccc2)c1`, the T/C [8] is reported as 100 % of control, the T/C [9] is reported as 94 % of control and the T/C [10] is reported as 97 % of control. For the same compound, the T/C [11] was 97 % of control.
In the case of `CC[Si](CC)(CC)c1ccc(CCNCCS)s1`, the T/C (dose: 75.0 mg/kg/injection, schedule: Q04DX003 (ip), vehicle: saline) is reported as 95 % of control and the T/C (dose: 150.0 mg/kg/injection, schedule: Q04DX003 (ip), vehicle: saline) is reported as 93 % of control.
`O=Cc1cccn1-c1ccc2ncccc2c1[N+](=O)[O-]` was tested, and the T/C [12] was 90 % of control, the T/C (dose: 100.0 mg/kg/injection, schedule: Q04DX002 (ip), vehicle: Klucel (hydroxypropylcellulose) (HPC)) was 111 % of control and the T/C (dose: 200.0 mg/kg/injection, schedule: Q04DX002 (ip), vehicle: Klucel (hydroxypropylcellulose) (HPC)) was 93 % of control.
For `CCCCNC(=O)OC/C=C/CC(Cl)(Cl)Cl`, the T/C (dose: 100.0 mg/kg/injection, schedule: Q01DX009 (sc), vehicle: olive oil, sesame oil, peanut oil) was 103 % of control, the T/C (dose: 100.0 mg/kg/injection, schedule: Q04DX003 (sc), vehicle: olive oil, sesame oil, peanut oil) was 95 % of control and the T/C (dose: 200.0 mg/kg/injection, schedule: Q01DX009 (sc), vehicle: olive oil, sesame oil, peanut oil) was 101 % of control. For the same compound, the T/C (dose: 200.0 mg/kg/injection, schedule: Q04DX003 (sc), vehicle: olive oil, sesame oil, peanut oil) was 108 % of control, the T/C (dose: 400.0 mg/kg/injection, schedule: Q01DX009 (sc), vehicle: olive oil, sesame oil, peanut oil) was 101 % of control and the T/C (dose: 400.0 mg/kg/injection, schedule: Q04DX003 (sc), vehicle: olive oil, sesame oil, peanut oil) was 94 % of control.
With `OCC1OC(n2ccc3c(Cl)ncnc32)C(O)C1O` (centres undefined) the T/C (dose: 25.0 mg/kg/injection, schedule: Q01DX001 (ip), vehicle: saline) was 110 % of control, the T/C [8] was 104 % of control and the T/C [9] was 110 % of control. The T/C [10] was 110 % of control.
For `Cc1c[n+](CC(=O)c2ccccc2)cn1CC(=O)c1ccccc1`, the T/C (dose: 25.0 mg/kg/injection, schedule: Q01DX009 (ip), vehicle: Klucel (hydroxypropylcellulose) (HPC)) was 102 % of control and 105 % of control, the T/C (dose: 25.0 mg/kg/injection, schedule: Q04DX002 (ip), vehicle: Klucel (hydroxypropylcellulose) (HPC)) was 95 % of control and 102 % of control and the T/C (dose: 50.0 mg/kg/injection, schedule: Q01DX009 (ip), vehicle: Klucel (hydroxypropylcellulose) (HPC)) was 100 % of control and 116 % of control. The T/C [12] was 95 % of control and 100 % of control and the T/C [13] was 102 % of control and 108 % of control.
`C/C(=N\N=C(/C)c1ccc(N)cc1)c1ccc(N)cc1` was tested, and the T/C [9] was 90 % of control and the T/C [11] was 96 % of control.
`CC(C)(C)C(=O)C#Cc1ccccc1` was tested, and the T/C (dose: 25.0 mg/kg/injection, schedule: Q04DX003 (ip), vehicle: saline) was 102 % of control, the T/C (dose: 50.0 mg/kg/injection, schedule: Q04DX003 (ip), vehicle: saline) was 96 % of control and the T/C (dose: 100.0 mg/kg/injection, schedule: Q04DX003 (ip), vehicle: saline) was 89 % of control.
`COC(=O)C(C(=O)OC)c1c(N)n(C)c(=O)n(C)c1=O` was tested, and the T/C [2] was 93 % of control, the T/C [3] was 100 % of control and the T/C [4] was 100 % of control.
With `CCCCCC1OC1C/C=C\CCCCCCCC(=O)OCC(O)COC(=O)CCCCCCC/C=C\CC1OC1CCCCC` (centres undefined) the T/C [9] was 97 % of control, the T/C [10] was 97 % of control and the T/C [11] was 95 % of control.
`CCOC(=O)N(CC(C)C(=O)OC)C(C)C` (centres undefined) was tested, and the T/C (dose: 100.0 mg/kg/injection, schedule: Q01DX Z (ip), vehicle: saline) was 100 % of control and the T/C (dose: 200.0 mg/kg/injection, schedule: Q01DX Z (ip), vehicle: saline) was 97 % of control.
`Cc1ccccc1NC(=O)CS` was tested, and the T/C [14] was 95 % of control and the T/C [15] was 88 % of control.
In the case of `NC(CCCO)Cc1cc2ccccc2c2ccccc12` (centres undefined), the T/C [9] is reported as 101 % of control, the T/C [10] is reported as 101 % of control and the T/C [11] is reported as 109 % of control.
With `O=C(O)COc1ccccc1CO` the T/C [1] was 91 % of control, the T/C (dose: 100.0 mg/kg/injection, schedule: Q01DX009 (ip), vehicle: saline with Tween-80) was 88 % of control and the T/C (dose: 200.0 mg/kg/injection, schedule: Q01DX001 (ip), vehicle: saline with Tween-80) was 94 % of control. For the same compound, the T/C (dose: 200.0 mg/kg/injection, schedule: Q01DX009 (ip), vehicle: saline with Tween-80) was 94 % of control, the T/C (dose: 400.0 mg/kg/injection, schedule: Q01DX001 (ip), vehicle: saline with Tween-80) was 92 % of control and the T/C (dose: 400.0 mg/kg/injection, schedule: Q01DX009 (ip), vehicle: saline with Tween-80) was 91 % of control.
For `CCC(N)(CO)CO`, the T/C [14] was 98 % of control, the T/C [15] was 95 % of control and the T/C (dose: 400.0 mg/kg/injection, schedule: Q04DX003 (ip), vehicle: saline with Tween-80) was 95 % of control.
`CCS(=O)(=O)C(S(=O)(=O)CC)S(=O)(=O)CC` was tested, and the T/C [2] was 102 % of control, the T/C [3] was 91 % of control and the T/C [4] was 96 % of control.
For `O=C(Nc1ccccc1)Oc1ccc(Cl)cc1`, the T/C [13] was 97 % of control, the T/C [5] was 107 % of control and the T/C (dose: 200.0 mg/kg/injection, schedule: Q01DX009 (ip), vehicle: Klucel (hydroxypropylcellulose) (HPC)) was 102 % of control. The T/C [6] was 96 % of control, the T/C (dose: 400.0 mg/kg/injection, schedule: Q01DX009 (ip), vehicle: Klucel (hydroxypropylcellulose) (HPC)) was 103 % of control and the T/C [7] was 113 % of control.
In the case of `C=CCS(=O)(=O)c1ccc(C)cc1`, the T/C [5] is reported as 102 % of control, the T/C [6] is reported as 100 % of control and the T/C [7] is reported as 100 % of control.

Source: PubChem BioAssay AID248 (DTP/NCI, 2004)
